Laboratory results: patent publication US20260041679A1, “METHOD OF TREATING HYPERTENSION WITH THE ALDOSTERONE SYNTHASE INHIBITOR BAXDROSTAT” (CINCOR PHARMA, INC., priority 2022, published 2026)

Tests used:
[1] = Single ascending dose study, pharmacokinetics (Example 1); format: in vivo
Method: (§1) Eighty-eight healthy male volunteers completed the first-in-human study of baxdrostat. In part 1 of the trial, subjects received a single oral dose of baxdrostat ranging from 1 to 360 mg in order to evaluate safety, tolerability, PK, and pharmacodynamics (PD). Part 2 evaluated the PK of a single 3 mg intravenous dose of baxdrostat.

[2] = Relative bioavailability tablet vs oral solution and food effect (Example 3); format: in vivo, human; conditions: for Tmax: human, plasma, oral, 5 mg
Method: The relative bioavailability of a tablet formulation of baxdrostat was compared to the oral solution of baxdrostat that was administered in the SAD (Example 1) and MAD (Example 2) studies. A single 5 mg dose of each formulation in fourteen healthy volunteers established that plasma levels of baxdrostat were equivalent whether administered using the oral solution or tablet. This study also assessed the effect of a standardized high-fat meal on the PK of baxdrostat.

[3] = Single ascending dose study, safety and tolerability (Example 1); format: in vivo; conditions: single dose 1 to 360 mg
Method: as §1

aldosterone synthase [4] = molecular target: T1, aldosterone synthase (Homo sapiens, UniProt P19099); assay: Single ascending dose study, pharmacodynamics: aldosterone, cortisol with ACTH challenge (Example 1); format: in vivo
T1 construct: Pharmacodynamic measurements included plasma aldosterone, cortisol, and electrolytes; endogenous in cells; host or cells: human subjects in vivo (healthy volunteers; resistant hypertension patients)
T1 sequence (P19099 25-503): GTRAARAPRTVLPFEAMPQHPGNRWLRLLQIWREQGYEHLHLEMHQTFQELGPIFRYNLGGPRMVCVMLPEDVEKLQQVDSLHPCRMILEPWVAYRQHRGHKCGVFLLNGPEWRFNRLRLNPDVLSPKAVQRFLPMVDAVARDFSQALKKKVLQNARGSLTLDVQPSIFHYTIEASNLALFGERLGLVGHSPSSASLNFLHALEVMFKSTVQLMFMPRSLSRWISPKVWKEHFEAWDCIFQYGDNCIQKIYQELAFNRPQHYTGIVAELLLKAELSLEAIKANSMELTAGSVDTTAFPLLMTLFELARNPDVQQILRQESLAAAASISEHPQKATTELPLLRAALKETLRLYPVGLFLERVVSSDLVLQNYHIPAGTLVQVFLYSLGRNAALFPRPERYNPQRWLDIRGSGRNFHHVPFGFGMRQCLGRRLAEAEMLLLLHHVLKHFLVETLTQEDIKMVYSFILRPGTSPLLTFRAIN
Method: as §1

aldosterone synthase [5] = molecular target: T1, aldosterone synthase; assay: Multiple ascending dose study, pharmacodynamics: plasma aldosterone, cortisol, electrolytes (Example 2); format: in vivo
Method: This randomized, double-blind, placebo-controlled phase 1 study evaluated the safety, pharmacokinetics, and pharmacodynamics of multiple ascending doses of baxdrostat in healthy volunteers. Fifty-six subjects were randomized to receive oral baxdrostat (0.5, 1.5, 2.5, or 5.0 mg) or placebo once daily for ten days and were placed on either a low salt or normal salt diet for the duration of the study. In particular, subjects were randomized into 5 cohorts to receive baxdrostat or placebo once daily for 10 days. Cohorts 1 and 2 were placed on a low salt diet to stimulate aldosterone production and were administered 2.5 or 5.0 mg oral baxdrostat, respectively. Cohorts 1 and 2 also underwent an adrenocorticotropic hormone (ACTH) challenge to increase aldosterone and cortisol levels to evaluate the specificity of baxdrostat for targeting aldosterone synthase. Cohorts 3, 4, and 5 were placed on a normal salt diet and were administered 1.5, 2.5, or 0.5 mg oral baxdrostat, respectively. Blood samples were collected prior to and after dosing on days 1 and 10 for measurement of plasma baxdrostat concentrations to characterize single-dose and steady-state pharmacokinetics. Pharmacodynamic measurements included plasma aldosterone, cortisol, and electrolytes. Safety assessments included physical examination, electrocardiograms, orthostatic vital signs, and clinical laboratory evaluations.

With CCC(=O)N[C@@H]1CCCc2c(-c3ccc4c(c3)CCC(=O)N4C)cncc21 [baxdrostat, (R)—N-(4-(1-methyl-2-oxo-1,2,3,4-tetrahydroquinolin-6-yl)-5,6,7,8-tetrahydroisoquinolin-8-yl) propionamide] the half-life ([1]; human, plasma, oral, single dose, healthy male volunteers) was 29 h, the “plasma levels of baxdrostat vs dose” value ([1]; single oral dose 1 to 360 mg) was “increased in a dose-proportional manner” and the Tmax ([2]; fasted state) was ~3 h. The Tmax ([2]; fed state (high-fat meal)) was ~4 h, the “plasma levels, oral solution vs tablet” value ([2]; single 5 mg dose of each formulation) was “equivalent” and the “effect of high-fat meal on plasma levels” value ([2]; tablet, single 5 mg) was “no noteworthy effect”. The “deaths, serious adverse events, dose-limiting adverse events” value [3] was “no deaths, serious adverse events, or dose-limiting adverse events”, the side effects [3] was “mild and included headache, nasopharyngitis, and diarrhea” and the “cortisol levels with an adrenocorticotropin hormone challenge” value (aldosterone synthase [4]; single oral dose) was “no meaningful effect on cortisol levels”. The aldosterone levels (aldosterone synthase [4]; single oral dose 1 to 360 mg, fasted, low salt and normal salt diet) was “significantly reduced aldosterone levels in a dose-dependent manner”, the “plasma aldosterone, reduction” value (aldosterone synthase [5]; Day 10) was 51-73% and the plasma aldosterone (aldosterone synthase [5]; doses ≥1.5 mg, regardless of diet) was “dose-dependent reduction of plasma aldosterone”. The plasma cortisol (aldosterone synthase [5]; once daily, 10 days) was “no meaningful impact on plasma cortisol”, the plasma sodium levels (aldosterone synthase [5]; once daily, 10 days) was “mild dose-dependent decreases in plasma sodium levels” and the potassium levels (aldosterone synthase [5]; once daily, 10 days) was “increases in potassium levels”.
